Experiments:
[1] = target: human CB1 receptors (Homo sapiens (Human), UniProt P21554); assay: cAMP assay, CHO cells expressing human CB1 receptors; type: cell-based; details: CHO cells expressing human CB1, cAMP; read-out: human CB1 EC50
Summary of the method: (§1)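 CHO cells, KRB buffer + 1 mM IBMX, 30 min 30 °C preincubation; compound 30 min 30 °C; lysis + TR-FRET cAMP detection, 2 h RT; cAMP from standard curve (10 μM–0.13 nM); EC50.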

[2] = target: human CB2 receptors (Homo sapiens (Human), UniProt P34972); assay: cAMP assay, CHO cells expressing human CB2 receptors; type: cell-based; details: CHO cells expressing human CB2, cAMP; read-out: human CB2 EC50
Summary of the method: as §1

human CB1 receptors, sequence (P21554 whole entry): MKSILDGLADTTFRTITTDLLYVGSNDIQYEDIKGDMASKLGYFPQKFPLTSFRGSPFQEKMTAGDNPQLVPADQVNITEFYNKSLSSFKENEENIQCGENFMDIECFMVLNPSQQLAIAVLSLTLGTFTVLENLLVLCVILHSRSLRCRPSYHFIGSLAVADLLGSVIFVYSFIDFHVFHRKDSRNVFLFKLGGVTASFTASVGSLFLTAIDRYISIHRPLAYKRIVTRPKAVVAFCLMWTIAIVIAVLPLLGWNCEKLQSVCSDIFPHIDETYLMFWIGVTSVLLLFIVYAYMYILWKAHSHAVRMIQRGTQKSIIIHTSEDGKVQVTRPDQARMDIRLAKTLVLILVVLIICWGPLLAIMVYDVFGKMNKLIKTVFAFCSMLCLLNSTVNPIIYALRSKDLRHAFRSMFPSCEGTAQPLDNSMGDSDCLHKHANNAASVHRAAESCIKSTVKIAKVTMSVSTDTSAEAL
human CB2 receptors, sequence (P34972 whole entry): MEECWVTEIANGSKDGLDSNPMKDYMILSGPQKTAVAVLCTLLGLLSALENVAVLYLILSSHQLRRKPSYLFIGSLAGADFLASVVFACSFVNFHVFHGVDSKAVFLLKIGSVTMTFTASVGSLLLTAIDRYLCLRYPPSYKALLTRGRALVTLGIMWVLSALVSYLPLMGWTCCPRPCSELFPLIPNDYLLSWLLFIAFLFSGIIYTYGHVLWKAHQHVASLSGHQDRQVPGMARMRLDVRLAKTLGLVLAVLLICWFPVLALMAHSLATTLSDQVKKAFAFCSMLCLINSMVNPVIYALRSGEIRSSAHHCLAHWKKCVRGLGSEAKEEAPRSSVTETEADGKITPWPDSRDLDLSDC

SMILES	EC50 [1] [µM]	EC50 [2] [nM]
CNC(=O)[C@H](CC(C)(C)C)NC(=O)c1ccc(C(F)(F)F)c(OCC2CC2)n1 [Example 228, 6-Cyclopropylmethoxy-5-trifluoromethyl-pyridine-2-carboxylic acid ((S)-3,3-dimethyl-1-methylcarbamoyl-butyl)-amide]	> 10	16.8
Cc1nc(C(NC(=O)c2ccc(C(F)(F)F)c(OCC3CC3)n2)C2CC2)no1 (stereo not drawn) [Example 229, 6-Cyclopropylmethoxy-5-trifluoromethyl-pyridine-2-carboxylic acid [cyclopropyl-(5-methyl-[1,2,4]oxadiazol-3-yl)-methyl]-amide]	> 10	52.4
CNC(=O)[C@H](CC(C)(C)C)NC(=O)c1ccc(C(F)(F)F)c(OCC2CCOCC2)n1 [Example 230, 6-(Tetrahydro-pyran-4-ylmethoxy)-5-trifluoromethyl-pyridine-2-carboxylic acid ((S)-3,3-dimethyl-1-methylcarbamoyl-butyl)-amide]	1.59	29.4
CC(C)C[C@H](NC(=O)c1ccc(C2CC2)c(OCC2CC2)n1)C(=O)N(C)C [Example 231, 5-Cyclopropyl-6-cyclopropylmethoxy-pyridine-2-carboxylic acid ((S)-1-dimethylcarbamoyl-3-methyl-butyl)-amide]	0.678	1.4
CCC(CC)(NC(=O)c1ccc(C2CC2)c(OCC2CCCO2)n1)C(=O)OC (stereo not drawn) [Example 233, 2-{[5-Cyclopropyl-6-(tetrahydro-furan-2-ylmethoxy)-pyridine-2-carbonyl]-amino}-2-ethyl-butyric acid methyl ester]	0.071	0.1
CNC(=O)[C@H](CC(C)(C)C)NC(=O)c1ccc(N2CCC23COC3)c(OCC2CC2)n1 [Example 234, 6-Cyclopropylmethoxy-5-(6-oxa-1-aza-spiro[3.3]hept-1-yl)-pyridine-2-carboxylic acid ((S)-3,3-dimethyl-1-methylcarbamoyl-butyl)-amide]	> 10	8.3
Cc1nc(C(C)(C)NC(=O)c2ccc(N3CCC34COC4)c(OCC3CC3)n2)no1 [Example 235, 6-Cyclopropylmethoxy-5-(6-oxa-1-aza-spiro[3.3]hept-1-yl)-pyridine-2-carboxylic acid [1-methyl-1-(5-methyl-[1,2,4]oxadiazol-3-yl)-ethyl]-amide]	> 10	41.3
Cc1nc(C(NC(=O)c2ccc(N3CCC34COC4)c(OCC3CC3)n2)C2CC2)no1 (stereo not drawn) [Example 236, 6-Cyclopropylmethoxy-5-(6-oxa-1-aza-spiro[3.3]hept-1-yl)-pyridine-2-carboxylic acid [cyclopropyl-(5-methyl-[1,2,4]oxadiazol-3-yl)-methyl]-amide]	> 10	36.5
O=C(N[C@H](c1cccnc1)C(F)(F)F)c1ccc(N2CC(F)(F)C2)c(OCC2CC2)n1 [Example 237, 6-Cyclopropylmethoxy-5-(3,3-difluoro-azetidin-1-yl)-pyridine-2-carboxylic acid ((R)-2,2,2-trifluoro-1-pyridin-3-yl-ethyl)-amide]	> 10	97.5
CCC(CC)(NC(=O)c1ccc(C(F)(F)F)c(OCC2CCOCC2)n1)C(=O)OC [Example 238, 2-Ethyl-2-{[6-(tetrahydro-pyran-4-ylmethoxy)-5-trifluoromethyl-pyridine-2-carbonyl]-amino}-butyric acid methyl ester]	0.146	0.4
COC(=O)[C@@H](NC(=O)c1ccc(C2CC2)c(OCC2CC2)n1)C(C)(C)C [Example 239, (S)-2-[(5-Cyclopropyl-6-cyclopropylmethoxy-pyridine-2-carbonyl)-amino]-3,3-dimethyl-butyric acid methyl ester]	0.0919	1.1
O=C(N[C@@H](c1ccccn1)C(F)(F)F)c1ccc(C2CC2)c(OCC2CC2)n1 [Example 240, 5-Cyclopropyl-6-cyclopropylmethoxy-pyridine-2-carboxylic acid ((−)-2,2,2-trifluoro-1-pyridin-2-yl-ethyl)-amide]	> 10	66.1
Cc1nc([C@@H](C)NC(=O)c2ccc(C3CC3)c(OCC3CC3)n2)no1 [Example 241, 5-Cyclopropyl-6-cyclopropylmethoxy-pyridine-2-carboxylic acid [(−)-1-(5-methyl-[1,2,4]oxadiazol-3-yl)-ethyl]-amide]	> 10	49.1
Cc1nc([C@H](CC(C)C)NC(=O)c2ccc(C3CC3)c(OCC3CC3)n2)no1 [Example 242, 5-Cyclopropyl-6-cyclopropylmethoxy-pyridine-2-carboxylic acid [(+)-3-methyl-1-(5-methyl-[1,2,4]oxadiazol-3-yl)-butyl]-amide]	> 10	1.2
Cc1nc([C@@H](CC(C)C)NC(=O)c2ccc(C3CC3)c(OCC3CC3)n2)no1 [Example 243, 5-Cyclopropyl-6-cyclopropylmethoxy-pyridine-2-carboxylic acid [(−)-3-methyl-1-(5-methyl-[1,2,4]oxadiazol-3-yl)-butyl]-amide]	0.83	22.1
CC[C@H](NC(=O)c1ccc(C2CC2)c(OCC2CC2)n1)c1noc(C)n1 [Example 244, 5-Cyclopropyl-6-cyclopropylmethoxy-pyridine-2-carboxylic acid [(+)-1-(5-methyl-[1,2,4]oxadiazol-3-yl)-propyl]-amide]	> 10	14.1
CC[C@@H](NC(=O)c1ccc(C2CC2)c(OCC2CC2)n1)c1noc(C)n1 [Example 245, 5-Cyclopropyl-6-cyclopropylmethoxy-pyridine-2-carboxylic acid [(−)-1-(5-methyl-[1,2,4]oxadiazol-3-yl)-propyl]-amide]	> 10	20.5
C[C@@H](C#N)NC(=O)c1ccc(C2CC2)c(OCC2CC2)n1 [Example 246, 5-Cyclopropyl-6-cyclopropylmethoxy-pyridine-2-carboxylic acid ((−)-cyano-methyl-methyl)-amide]	2.47	215
CC(C)C[C@H](C#N)NC(=O)c1ccc(C2CC2)c(OCC2CC2)n1 [Example 247, 5-Cyclopropyl-6-cyclopropylmethoxy-pyridine-2-carboxylic acid ((−)-1-cyano-3-methyl-butyl)-amide]	> 10	5.6
N#C[C@H](NC(=O)c1ccc(C2CC2)c(OCC2CC2)n1)C1CC1 [Example 248, 5-Cyclopropyl-6-cyclopropylmethoxy-pyridine-2-carboxylic acid ((+)-cyano-cyclopropyl-methyl)-amide]	> 10	51
CCC(CC)(NC(=O)c1ccc(C(F)(F)F)c(OCC2CC2)n1)C(=O)OC [Example 249, 2-[(6-Cyclopropylmethoxy-5-trifluoromethyl-pyridine-2-carbonyl)-amino]-2-ethyl-butyric acid methyl ester]	> 10	2.2
CCC(CC)(NC(=O)c1ccc(C2CC2)c(OCC2CCCO2)n1)C(=O)NC (stereo not drawn) [Example 250, 5-Cyclopropyl-6-(tetrahydro-furan-2-ylmethoxy)-pyridine-2-carboxylic acid (1-ethyl-1-methylcarbamoyl-propyl)-amide]	> 10	9.5
CCC(CC)(NC(=O)c1ccc(C2CC2)c(OCC2CC2)n1)C(=O)OC [Example 251, 2-[(5-Cyclopropyl-6-cyclopropylmethoxy-pyridine-2-carbonyl)-amino]-2-ethyl-butyric acid methyl ester]	0.0906	1.4
CCC(CC)(NC(=O)c1ccc(C(F)(F)F)c(OCC2CC2)n1)C(=O)O [Example 252, 2-[(6-Cyclopropylmethoxy-5-trifluoromethyl-pyridine-2-carbonyl)-amino]-2-ethyl-butyric acid]	> 10	552
CCC(CC)(NC(=O)c1ccc(C(F)(F)F)c(OCC2CCOCC2)n1)C(=O)NC [Example 253, 6-(Tetrahydro-pyran-4-ylmethoxy)-5-trifluoromethyl-pyridine-2-carboxylic acid (1-ethyl-1-methylcarbamoyl-propyl)-amide]	> 10	14.3
CCOC(=O)C(CC)(CC)NC(=O)c1ccc(C(F)(F)F)c(OCC2CCCO2)n1 (stereo not drawn) [Example 254, 2-Ethyl-2-{[6-(tetrahydro-furan-2-ylmethoxy)-5-trifluoromethyl-pyridine-2-carbonyl]-amino}-butyric acid ethyl ester]	0.518	2.3
CN(C)C(=O)C(NC(=O)c1ccc(N2CC(F)(F)C2)c(OCC2CC2)n1)c1ccccc1 (stereo not drawn) [Example 255, 6-Cyclopropylmethoxy-5-(3,3-difluoro-azetidin-1-yl)-pyridine-2-carboxylic acid (dimethylcarbamoyl-phenyl-methyl)-amide]	> 10	61.3
CN(C)C(=O)[C@H](CC1CC1)NC(=O)c1ccc(N2CC(F)(F)C2)c(OCC2CC2)n1 [Example 256, 6-Cyclopropylmethoxy-5-(3,3-difluoro-azetidin-1-yl)-pyridine-2-carboxylic acid ((S)-2-cyclopropyl-1-dimethylcarbamoyl-ethyl)-amide]	> 10	9.3
CCOC(=O)C(CC)(CC)NC(=O)c1ccc(C2CC2)c(OCC2CC2)n1 [Example 257, 2-[(5-Cyclopropyl-6-cyclopropylmethoxy-pyridine-2-carbonyl)-amino]-2-ethyl-butyric acid ethyl ester]	0.347	2.3
COC(=O)[C@H](CC1CC1)NC(=O)c1ccc(C2CC2)c(OCC2CC2)n1 [Example 258, (S)-3-Cyclopropyl-2-[(5-cyclopropyl-6-cyclopropylmethoxy-pyridine-2-carbonyl)-amino]-propionic acid methyl ester]	> 10	7.1
